Data from patent publication US20240016781A1, “TREATMENT OF KRAS MUTANT CANCERS” (MEI Pharma, Inc., priority 2020, published 2024).
Like-named read-outs stand apart in the source and are kept apart here.

Experiment: PK of voruciclib, 2 weeks of daily dosing followed by 1 week without dosing in a 21-day cycle (Table 3)
Format: in vivo, human
Conditions: for Accumulation Ratio (AUC0-24 h): Day 13/Day 1, 2 weeks daily dosing/1 week off; for AUC(0-inf) / Cmax / half-life / AUC(0-t) / Vd/F / Tmax: human, plasma, oral; for Vd/F: read-out: Vz/F; for Tmax: median
From the text: Voruciclib half life is designated as t½ in the tables (expressed in hours).
Voruciclib volume of distribution is designated as Vz/F (expressed in liters).

[1] = 75 mg, Day 1, 2 weeks daily dosing/1 week off, mean
[2] = 75 mg, Day 13, 2 weeks daily dosing/1 week off, mean
[3] = 150 mg, Day 1, 2 weeks daily dosing/1 week off, mean
[4] = 150 mg, Day 13, 2 weeks daily dosing/1 week off, mean
[5] = 300 mg, Day 1, 2 weeks daily dosing/1 week off, mean
[6] = 300 mg, Day 13, 2 weeks daily dosing/1 week off, n = 1
[7] = 600 mg, Day 1, 2 weeks daily dosing/1 week off, mean
[8] = 600 mg, Day 13, 2 weeks daily dosing/1 week off, mean
[9] = 850 mg, Day 1, 2 weeks daily dosing/1 week off, mean
[10] = 850 mg, Day 13, 2 weeks daily dosing/1 week off, mean

Accumulation Ratio (AUC0-24 h) (75 mg, mean): 2.937
Accumulation Ratio (AUC0-24 h) (150 mg, mean): 2.129
Accumulation Ratio (AUC0-24 h) (300 mg, mean): 2.602
Accumulation Ratio (AUC0-24 h) (600 mg, mean): 2.064
Accumulation Ratio (AUC0-24 h) (850 mg, mean): 3.139
AUC(0-inf) [1]: 4210 ng·h/mL
Cmax [1]: 193 ng/mL
half-life [1]: 21.7 h
AUC(0-t) (75 mg, Day 1, 2 weeks daily dosing/1 week off, mean, read-out: AUC0-24): 2280 ng·h/mL
AUC(0-t) (75 mg, Day 1, 2 weeks daily dosing/1 week off, mean, read-out: AUC0-t): 2280 ng·h/mL
Vd/F [1]: 1280 L
Tmax (75 mg, Day 1, 2 weeks daily dosing/1 week off): 4 h
AUC(0-inf) [2]: 8660 ng·h/mL
Cmax [2]: 313 ng/mL
half-life [2]: 16.9 h
AUC(0-t) (75 mg, Day 13, 2 weeks daily dosing/1 week off, mean, read-out: AUC0-24): 5290 ng·h/mL
AUC(0-t) (75 mg, Day 13, 2 weeks daily dosing/1 week off, mean, read-out: AUC0-t): 5290 ng·h/mL
Vd/F [2]: 349 L
Tmax (75 mg, Day 13, 2 weeks daily dosing/1 week off): 4 h
AUC(0-inf) [3]: 15800 ng·h/mL
Cmax [3]: 456 ng/mL
half-life [3]: 32.5 h
AUC(0-t) (150 mg, Day 1, 2 weeks daily dosing/1 week off, mean, read-out: AUC0-24): 6980 ng·h/mL
AUC(0-t) (150 mg, Day 1, 2 weeks daily dosing/1 week off, mean, read-out: AUC0-t): 6980 ng·h/mL
Vd/F [3]: 1650 L
Tmax (150 mg, Day 1, 2 weeks daily dosing/1 week off): 4 h
AUC(0-inf) [4]: 28200 ng·h/mL
Cmax [4]: 896 ng/mL
half-life [4]: 26.1 h
AUC(0-t) (150 mg, Day 13, 2 weeks daily dosing/1 week off, mean, read-out: AUC0-24): 13000 ng·h/mL
AUC(0-t) (150 mg, Day 13, 2 weeks daily dosing/1 week off, mean, read-out: AUC0-t): 13000 ng·h/mL
Vd/F [4]: 459 L
Tmax (150 mg, Day 13, 2 weeks daily dosing/1 week off): 4 h
AUC(0-inf) [5]: 148000 ng·h/mL
Cmax [5]: 1000 ng/mL
half-life [5]: 138 h
AUC(0-t) (300 mg, Day 1, 2 weeks daily dosing/1 week off, mean, read-out: AUC0-24): 15700 ng·h/mL
AUC(0-t) (300 mg, Day 1, 2 weeks daily dosing/1 week off, mean, read-out: AUC0-t): 15700 ng·h/mL
Vd/F [5]: 3980 L
Tmax (300 mg, Day 1, 2 weeks daily dosing/1 week off): 6 h
Cmax (300 mg, Day 13, 2 weeks daily dosing/1 week off, mean): 2100 ng/mL
AUC(0-t) (300 mg, Day 13, 2 weeks daily dosing/1 week off, mean, read-out: AUC0-24): 40400 ng·h/mL
AUC(0-t) (300 mg, Day 13, 2 weeks daily dosing/1 week off, mean, read-out: AUC0-t): 40400 ng·h/mL
Tmax (300 mg, Day 13, 2 weeks daily dosing/1 week off): 12 h
AUC(0-inf) [6]: 59300 ng·h/mL
half-life [6]: 16.2 h
Vd/F [6]: 185 L
AUC(0-inf) [7]: 61500 ng·h/mL
Cmax [7]: 1630 ng/mL
half-life [7]: 32.5 h
AUC(0-t) (600 mg, Day 1, 2 weeks daily dosing/1 week off, mean, read-out: AUC0-24): 24800 ng·h/mL
AUC(0-t) (600 mg, Day 1, 2 weeks daily dosing/1 week off, mean, read-out: AUC0-t): 24800 ng·h/mL
Vd/F [7]: 1550 L
Tmax (600 mg, Day 1, 2 weeks daily dosing/1 week off): 4 h
AUC(0-inf) [8]: 86000 ng·h/mL
Cmax [8]: 2940 ng/mL
half-life [8]: 19 h
AUC(0-t) (600 mg, Day 13, 2 weeks daily dosing/1 week off, mean, read-out: AUC0-24): 43500 ng·h/mL
AUC(0-t) (600 mg, Day 13, 2 weeks daily dosing/1 week off, mean, read-out: AUC0-t): 43500 ng·h/mL
Vd/F [8]: 394 L
Tmax (600 mg, Day 13, 2 weeks daily dosing/1 week off): 4 h
AUC(0-inf) [9]: 109000 ng·h/mL
Cmax [9]: 1730 ng/mL
half-life [9]: 50 h
AUC(0-t) (850 mg, Day 1, 2 weeks daily dosing/1 week off, mean, read-out: AUC0-24): 31400 ng·h/mL
AUC(0-t) (850 mg, Day 1, 2 weeks daily dosing/1 week off, mean, read-out: AUC0-t): 31400 ng·h/mL
Vd/F [9]: 2150 L
Tmax (850 mg, Day 1, 2 weeks daily dosing/1 week off): 9 h
AUC(0-inf) [10]: 170000 ng·h/mL
Cmax [10]: 4450 ng/mL
half-life [10]: 22.4 h
AUC(0-t) (850 mg, Day 13, 2 weeks daily dosing/1 week off, mean, read-out: AUC0-24): 83900 ng·h/mL
AUC(0-t) (850 mg, Day 13, 2 weeks daily dosing/1 week off, mean, read-out: AUC0-t): 83900 ng·h/mL
Vd/F [10]: 315 L
Tmax (850 mg, Day 13, 2 weeks daily dosing/1 week off): 5 h
Structure (SMILES): CN1CC[C@@H](c2c(O)cc(O)c3c(=O)cc(-c4ccc(C(F)(F)F)cc4Cl)oc23)[C@@H]1CO [Voruciclib, (+)-trans-2-(2-Chloro-4-trifluoromethylphenyl)-5,7-dihydroxy-8-(2-hydroxymethyl-1-methylpyrrolidin-3-yl)-chromen-4-one]
